The results in this text go back to patent publication US12180226B2, “Spirotricycle RIPK1 inhibitors and methods of uses thereof” (Merck Sharp & Dohme LLC, priority 2021, dated 2024).

The target of the test is RIPK1 (recombinant GST-RIPK1 kinase domain, residues 1-327) (Homo sapiens (Human), UniProt Q13546). Kind of test: RIPK1-ADP-Glo Enzymatic Assay. In kind it is biochemical. Conditions: ADP-Glo; 25 nM GST-RIPK1, 300 μM ATP; assay lower limit ~25 nM; read-out: RIPK1 V0 Ec50. The method in brief:
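Inhibition of ADP formation was measured after compound and enzyme (25 nM) were pre-incubated for 30 minutes at ambient temperature and the kinase reaction ran for 150 minutes at 300 μM ATP with dephosphorylated MBP substrate. EC50 values come from ten-point curves fitted non-linearly.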

pEC50: −log10 of the molar value. Counter-ions that a name gives are not always drawn. Bounds are passed on as bounds.

Chain of RIPK1 (recombinant GST-RIPK1 kinase domain, residues 1-327) (Q13546 1-327): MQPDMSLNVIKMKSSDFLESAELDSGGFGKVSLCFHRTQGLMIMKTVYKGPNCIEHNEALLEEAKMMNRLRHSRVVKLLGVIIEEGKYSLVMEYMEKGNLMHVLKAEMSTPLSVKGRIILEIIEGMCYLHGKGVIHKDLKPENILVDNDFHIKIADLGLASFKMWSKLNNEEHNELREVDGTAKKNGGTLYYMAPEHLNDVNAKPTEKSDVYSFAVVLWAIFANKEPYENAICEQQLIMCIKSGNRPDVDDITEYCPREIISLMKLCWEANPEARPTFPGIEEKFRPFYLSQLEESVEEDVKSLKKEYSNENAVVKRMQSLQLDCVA

As to `C[C@@]12CC[C@@H](c3ccccc3)N1C(=O)C1(CCN(C(=O)c3ccccc3)CC1)O2` [Example 6.98, (5′S,7a′R)-1-(benzene-carbonyl)-7a′-methyl-5′-phenyltetrahydro-3′H-spiro[piperidine-4,2′-pyrrolo[2,1-b] [1,3]oxazol]-3′-one], the negative logarithm of the EC50 (pEC50) is 6.28.

As for `O=C(c1cnon1)N1CCC2(CC1)O[C@@H]1CC[C@@H](c3cc(F)cc(F)c3)N1C2=O` [Example 5.46, (5′S,7a′R)-5′-(3,5-difluoro-phenyl)-1-(1,2,5-oxazole-3-carbonyl)tetrahydro-3′H-spiro[piperidine-4,2′-pyrrolo-[2,1-b]oxazol]-3′-one], the negative-log EC50 (pEC50) is 6.35.

For `N#Cc1cnc(N2CCC3(CC2)O[C@@H]2CC[C@@H](c4cccc(F)c4)N2C3=O)c(F)c1` [Example 4.50, 5-fluoro-6-[(5′S,7a′R)-5′-(3-fluorophenyl)-3′-oxotetrahydro-1H,3′H-spiro[piperidine-4,2′-pyrrolo[2,1-b] [1,3]oxazol]-1-yl]pyridine-3-carbonitrile], the pEC50 was 7.51.

For `O=C1N2[C@@H](CC[C@H]2c2ccccc2)OC12CCN(c1ccnc3ccnn13)CC2` [Example 4.28, (5′S,7a′R)-5′-phenyl-1-(pyrazolo[1,5-a]pyrimidin-7-yl)tetrahydro-3′H-spiro[piperidine-4,2′-pyrrolo[2,1-b] [1,3]oxazol]-3′-one], the pEC50 was over 7.60.

With `Cc1ccccc1C(=O)N1CCC2(CC1)O[C@@H]1CC[C@@H](c3cc(F)cc(F)c3)N1C2=O` [Example 6.11, (5′S,7a′R)-5′-(3,5-difluorophenyl)-1-(2-methybenzene-1-carbonyl)tetrahydro-3′H-spiro[piperidine-4,2′-pyrrolo[2,1-b] [1,3]oxazol]-3′-one], the pEC50 was 7.16.

In the case of `O=C1N2[C@@H](CC[C@H]2c2ccccc2)OC12CCN(c1cc(OC3CCC3)ccn1)CC2` [Example 11.20, (5′S,7a′R)-1-[4-(cyclobutyloxy)pyridin-2-yl]-5′-phenyltetrahydro-3′H-spiro[piperidine-4,2′-pyrrolo[2,1-b][1,3]oxazol]-3′-one], the negative logarithm of the EC50 (pEC50) is 7.57.

Consider `N#Cc1cc([C@@H]2CC[C@H]3OC4(CCN(c5ccnc6c(F)cnn56)CC4)C(=O)N32)ccc1F` [Example 20.6, 2-fluoro-5-[(5′S,7a′R)-1-(3-fluoropyrazolo[1,5-a]pyrimidin-7-yl)-3′-oxotetrahydro-3′H-spiro[piperidine-4,2′-pyrrolo[2,1-b][1,3]oxazol]-5′-yl]benzonitrile], for which the negative-log EC50 (pEC50) was over 7.60.

As for `N#Cc1cscc1[C@@H]1CC[C@H]2OC3(CCN(C(=O)c4ccccc4)CC3)C(=O)N21` [Example 17.13, 4-((5′S,7a′R)-1-benzoyl-3′-oxotetrahydro-3′H-spiro[piperidine-4,2′-pyrrolo[2,1-b]oxazol]-5′-yl)thiophene-3-carbonitrile], the negative logarithm of the EC50 (pEC50) is 6.68.

As to `CC(C)(O)C#Cc1cccc(C(=O)N2CCC3(CC2)O[C@@H]2CC[C@@H](c4cc(F)cc(F)c4)N2C3=O)c1` [Example 5.24, (5′S,7a′R)-5′-(3,5-difluoro-phenyl)-1-(3-(3-hydroxy-3-methylbut-1-yn-1-yl)-benzoyl)tetrahydro-3′H-spiro[piperidine-4,2′-pyrrolo[2,1-b]oxazol]-3′-one], the negative-log EC50 (pEC50) is over 7.60.

As for `CC1CC2(CCN1C(=O)c1ccccc1)O[C@@H]1CC[C@@H](c3cc(F)cc(F)c3)N1C2=O` (stereo partly drawn) [Example 6.107, (4R,5′S,7a′R)-1-(benzenecarbonyl)-5′-(3,5-difluorophenyl)-2-methyltetrahydro-3′H-spiro[piperidine-4,2′-pyrrolo[2,1-b] [1,3]oxazol]-3′-one], the pEC50 was over 7.60.

In the case of `O=C1N2[C@@H](CC[C@H]2c2ccccc2)OC12CCN(c1ccc(C(F)F)c3ncnn13)CC2` [Example 4.269, (5′S,7a′R)-1-[8-(difluoromethyl)[1,2,4]triazolo[1,5-a]pyridin-5-yl]-5′-phenyltetrahydro-3′H-spiro[piperidine-4,2′-pyrrolo[2,1-b] [1,3]oxazol]-3′-one], the negative logarithm of the EC50 (pEC50) was over 7.60.

Take `N#Cc1ccc(N2CCC3(CC2)O[C@@H]2CC[C@@H](c4cccc(F)c4)N2C3=O)c(F)c1` [Example 4.53, 3-fluoro-4-[(5′S,7a′R)-5′-(3-fluorophenyl)-3′-oxotetrahydro-1H,3′H-spiro[piperidine-4,2′-pyrrolo[2,1-b] [1,3]oxazol]-1-yl]benzonitrile]: the pEC50 is over 7.60.

In the case of `O=C(c1cccc(C23CC(C2)C3)n1)N1CCC2(CC1)O[C@@H]1CC[C@@H](c3cc(F)cc(F)c3)N1C2=O` [Example 6.137, (5′S,7a′R)-1-[6-(bicyclo[1.1.1]pentan-1-yl)pyridine-2-car-bonyl]-5-(3,5-difluoro-phenyl)tetrahydro-3′H-spiro[piperidine-4,2′-pyrrolo[2,1-b] [1,3]oxazol]-3′-one], the pEC50 is 7.10.

Consider `O=C1N2[C@@H](CC[C@H]2c2ccccc2)OC12CCN(c1cnc(-c3ncco3)cn1)CC2` [Example 21.14, (5′S,7a′R)-1-[5-(1,3-oxazol-2-yl)pyrazin-2-yl]-5′-phenyltetrahydro-3′H-spiro[piperidine-4,2′-pyrrolo[2,1-b][1,3]oxazol]-3′-one], for which the negative-log EC50 (pEC50) was 7.24.

As for `Cc1ncc([C@@H]2CC[C@H]3OC4(CCN(c5ccc(C#N)c(C)n5)CC4)C(=O)N32)cc1F` [Example 4.46, 6-[(5′S,7a′R)-5′-(5-fluoro-6-methylpyridin-3-yl)-3′-oxotetrahydro-1H,3′H-spiro[piperidine-4,2′-pyrrolo[2,1-b] [1,3]oxazol]-1-yl]-2-methylpyridine-3-carbonitrile], the negative logarithm of the EC50 (pEC50) was 7.33.

On to `O=C(c1ccc2sncc2c1)N1CCC2(CC1)O[C@@H]1CC[C@@H](c3cc(F)cc(F)c3)N1C2=O` [Example 6.65, (5′S,7a′R)-1-(1,2-benzothiazole-5-carbonyl)-5′-(3,5-difluorophenyl)tetra-hydro-3′H-spiro [piperidine-4,2′-pyrrolo[2,1-b][1,3]-oxazol]-3′-one], for which the negative logarithm of the EC50 (pEC50) is over 7.60.

As for `O=C(c1nccs1)N1CCC2(CC1)O[C@@H]1CC[C@@H](c3cc(F)cc(F)c3)N1C2=O` [Example 5.35, (5′S,7a′R)-5′-(3,5-difluoro-phenyl)-1-(thiazole-2-carbonyl)tetrahydro-3′H-spiro[piperidine-4,2′-pyrrolo[2,1-b]oxazol]-3′-one], the pEC50 is 7.60.

Turning to `CCOc1ccc(N2CCC3(CC2)O[C@@H]2CC[C@@H](c4cc(F)cc(F)c4)N2C3=O)n2nccc12` [Example 19.2, (5′S,7a′R)-5′-(3,5-difluorophenyl)-1-(4-ethoxypyrazolo[1,5-a]pyridin-7-yl)tetrahydro-3′H-spiro[piperidine-4,2′-pyrrolo[2,1-b]oxazol]-3′-one, TFA salt], the negative logarithm of the EC50 (pEC50) was over 7.60.

Regarding `CC1CN(c2ccnc3ccnn23)CCC12O[C@@H]1CC[C@@H](c3ccccc3)N1C2=O` (stereo partly drawn) [Example 4.238, (4R,5′S,7a′R)-3-methyl-5′-phenyl-1-(pyrazolo[1,5-a]pyrimidin-7-yl)tetrahydro-3′H-spiro[piperidine-4,2′-pyrrolo[2,1-b] [1,3]oxazol]-3′-one], the negative-log EC50 (pEC50) is over 7.60.

Turning to `O=C(c1cc(F)ccc1F)N1CCC2(CC1)O[C@@H]1CC[C@@H](c3ccccc3)N1C2=O` [Example 1.11, (5′S,7a′R)-1-(2,5-difluorobenzene-1-carbonyl)-5′-phenyltetrahydro-3′H-spiro[piperidine-4,2′-pyrrolo[2,1-b] [1,3]oxazol]-3′-one], the negative logarithm of the EC50 (pEC50) is over 7.60.

For the compound `N#Cc1cccc(C(=O)N2CCC3(CC2)O[C@@H]2CC[C@@H](c4ccccc4)N2C3=O)c1F` [Example 6.140, 2-fluoro-3-[(5′S,7a′R)-3′-oxo-5′-phenyltetra-hydro-1H,3′H-spiro [piperidine-4,2′-pyrrolo[2,1-b][1,3]oxazole]-1-carbonyl] benzonitrile], the pEC50 was 7.33.

For `O=C(c1cccc(F)c1)N1CCC2(CC1)O[C@@H]1CC[C@@H](c3cc(F)cc(F)c3)N1C2=O` [Example 7.5, (5′S,7a′R)-5′-(3,5-difluorophenyl)-1-(3-fluorobenzene-1-carbonyl)tetrahydro-3′H-spiro[piperidine-4,2′-pyrrolo[2,1-b][1,3]oxazol]-3′-one], the negative-log EC50 (pEC50) was over 7.60.

Regarding `N#Cc1cnc(N2CCC3(CC2)O[C@@H]2CC[C@@H](c4cc(F)cc(F)c4)N2C3=O)cc1F` [Example 4.75, 6-[(5′S,7a′R)-5′-(3,5-difluorophenyl)-3′-oxotetrahydro-1H,3′H-spiro[piperidine-4,2′-pyrrolo[2,1-b] [1,3]oxazol]-1-yl]-4-fluoropyridine-3-carbonitrile], the negative logarithm of the EC50 (pEC50) is over 7.60.

Take `Cc1cc(F)c(C(=O)N2CCC3(CC2)O[C@@H]2CC[C@@H](c4cc(F)cc(F)c4)N2C3=O)cc1F` [Example 5.6, (5′S,7a′R)-1-(2,5-difluoro-4-methylbenzene-1-carbonyl)-5′-(3,5-difluoro-phenyl)tetrahydro-3′H-spiro[piperidine-4,2′-pyrrolo[2,1-b][1,3]oxazol]-3′-one]: the pEC50 was over 7.60.

Regarding `Cc1nc(N2CCC3(CC2)O[C@@H]2CC[C@@H](c4ccccc4)N2C3=O)sc1C` [Example 11.32, (5′S,7a′R)-1-(4,5-dimethyl-1,3-thiazol-2-yl)-5′-phenyltetrahydro-3′H-spiro[piperidine-4,2′-pyrrolo[2,1-b][1,3]oxazol]-3′-one], the pEC50 is 6.50.

Consider `O=C(c1cc(F)ccn1)N1CCC2(CC1)O[C@@H]1CC[C@@H](c3cc(F)cc(F)c3)N1C2=O` [Example 6.92, (5′S,7a′R)-5′-(3,5-difluorophenyl)-1-(4-fluoropyridine-2-carbonyl)tetrahydro-3′H-spiro[piperidine-4,2′-pyrrolo[2,1-b] [1,3]oxazol]-3′-one], for which the pEC50 was 7.39.
